Measured values: ChEMBL document CHEMBL5614418, “Discovery of novel dihydropyrrolidone-thiadiazole compound crosstalk between the YycG/F two-component regulatory pathway and cell membrane homeostasis to combat methicillin-resistant Staphylococcus aureus” (Eur J Med Chem, 2024)
Values after ≈ are worked out from the molar mass of the structure shown. Active and inactive are the calls of the source. The calls are words filed in the database; no cut-off is given here.

How the values were obtained:
Enterococcus faecalis [1] = assay: Antibacterial activity against Enterococcus faecalis OG1RF by broth microdilution method; assay type: functional
[2] = Toxicity in BALB/c mouse assessed as change in BUN level at 50 mg/kg, ip measured after 1 to 3 days; assay type: organism-based; conditions: in vivo, time 1-3 day
Staphylococcus aureus [3] = assay: Downregulation of intracellular ATP level in methicillin sensitive Staphylococcus aureus SA113 at 1 to 4 times MIC incubated for 30 mins; assay type: functional, cell-based
Staphylococcus aureus [4] = assay: Antibacterial activity against methicillin sensitive Staphylococcus aureus CHS101; assay type: functional
[5] = test system: Staphylococcus epidermidis; assay: Synergistic antibacterial activity against Staphylococcus epidermidis SE1457 in presence of vancomycin; assay type: functional, organism-based
Pseudomonas aeruginosa = assay: Antibacterial activity against Pseudomonas aeruginosa; assay type: functional, organism-based
Staphylococcus aureus [6] = assay: Antibacterial activity against methicillin sensitive Staphylococcus aureus SA113 in presence of oleic acid; assay type: functional, organism-based
Staphylococcus aureus [7] = assay: Downregulation of fructosre-1, 6-diphosphate level in methicillin sensitive Staphylococcus aureus SA113 at 1/2 MIC incubated for 30 mins; assay type: functional
Staphylococcus aureus [8] = assay: Bactericidal activity against methicillin resistant Staphylococcus aureus USA300 assessed as planktonic cells killing by measuring log reduction in bacterial count at 2 to 8 times MIC measured after 24 hrs; assay type: functional
Staphylococcus aureus [9] = assay: Antibacterial activity against methicillin resistant Staphylococcus aureus USA300 infected in BALB/c mouse pneumonia model assessed as increase in mouse survival rate at 20 mg/kg, ip administered every 12 hrs for 3 times and measured after 48 hrs; assay type: functional, organism-based
[10] = Toxicity in BALB/c mouse assessed as change in Na+ level at 50 mg/kg, ip measured after 1 to 3 days; assay type: organism-based; conditions: in vivo, time 1-3 day
Staphylococcus aureus [11] = assay: Downregulation of pflB expression level in methicillin sensitive Staphylococcus aureus SA113 at 1/2 MIC incubated for 2 hrs by MS/MS analysis; assay type: functional
Staphylococcus aureus [12] = assay: Downregulation of pflA gene expression level in methicillin sensitive Staphylococcus aureus SA113 at 1/2 MIC by RT-qPCR analysis; assay type: functional
Staphylococcus aureus [13] = assay: Synergistic antibacterial activity against methicillin resistant Staphylococcus aureus USA300 assessed as fractional inhibitory concentration index in presence of daptomycin; assay type: functional
Staphylococcus aureus [14] = assay: Antibacterial activity against methicillin resistant Staphylococcus aureus […] infected in BALB/c mouse wound model assessed as log reduction in wound bacterial load at 20 mg/kg, ip administered every 12 hrs for 3 times and measured after 48 hrs in presence of DAP; assay type: functional
Staphylococcus aureus [15] = assay: Antibacterial activity against methicillin resistant Staphylococcus aureus USA300 infected in BALB/c mouse wound model assessed as log reduction in wound bacterial load at 20 mg/kg, ip administered every 12 hrs for 3 times and measured after 48 hrs; assay type: functional
[16] = test system: Staphylococcus epidermidis; assay: Antibacterial activity against methicillin resistant Staphylococcus epidermidis SE1457 infected in BALB/c mouse wound model assessed as log reduction in wound bacterial load at 20 mg/kg, ip administered every 12 hrs for 3 times and measured after 48 hrs; assay type: functional
Staphylococcus aureus [17] = assay: Antibacterial activity against methicillin resistant Staphylococcus aureus USA300 by broth microdilution method; assay type: functional
Escherichia coli = assay: Antibacterial activity against Escherichia coli; assay type: functional, organism-based
Enterococcus faecalis [18] = assay: Bactericidal activity against Enterococcus faecalis OG1RF; assay type: functional
Staphylococcus aureus [19] = assay: Inhibition of bacterial growth in methicillin resistant Staphylococcus aureus USA300 at 1/2 MIC concentration measured upto 16 hrs; assay type: functional, organism-based
Staphylococcus aureus [20] = assay: Induction of matured biofilm eradication in methicillin resistant Staphylococcus aureus YUSA145 assessed as log reduction in bacterial count in biofilm at 8 MIC incubated for 48 hrs by agar plate method; assay type: functional
Staphylococcus aureus [21] = assay: Antibacterial activity against methicillin resistant Staphylococcus aureus USA300 infected in BALB/c mouse pneumonia model assessed as log reduction in lung bacterial count at 20 mg/kg, ip administered every 12 hrs for 3 times and measured after 48 hrs; assay type: functional
[22] = test system: Staphylococcus epidermidis; assay: Synergistic antibacterial activity against Staphylococcus epidermidis SE1457 assessed as fractional inhibitory concentration index in presence of daptomycin; assay type: functional
[23] = test system: Staphylococcus epidermidis; assay: Synergistic antibacterial activity against Staphylococcus epidermidis SE1457 in presence of linezolid; assay type: functional, organism-based
[24] = test system: Staphylococcus epidermidis; assay: Induction of matured biofilm eradication in Staphylococcus epidermidis SE1457 assessed as reduction in bacterial survival in biofilm at 8 times MIC incubated for 48 hrs by SYTO 9 staining based confocal fluorescence microscopic analysis; assay type: functional
Staphylococcus aureus [25] = assay: Antibacterial activity against methicillin sensitive Staphylococcus aureus SA113 by broth microdilution method; assay type: functional
Staphylococcus aureus [26] = assay: Synergistic antibacterial activity against methicillin resistant Staphylococcus aureus USA300 assessed as fold increase in MIC in presence of daptomycin; assay type: functional
[27] = test system: Staphylococcus epidermidis; assay: Induction of matured biofilm eradication in Staphylococcus epidermidis SE1457 assessed as log reduction in bacterial count in biofilm at 8 times MIC incubated for 48 hrs by agar plate method; assay type: functional
[28] = Toxicity in BALB/c mouse assessed as change in ALT level at 50 mg/kg, ip measured after 1 to 3 days; assay type: organism-based; conditions: in vivo, time 1-3 day
[29] = test system: Staphylococcus epidermidis; assay: Bactericidal activity against Staphylococcus epidermidis SE1457; assay type: functional
Staphylococcus aureus [30] = assay: Antibacterial activity against methicillin sensitive Staphylococcus aureus SA113 assessed as fold increase in MIC in presence of peptidoglycan by chequerboard microdilution assay; assay type: functional
[31] = test system: Staphylococcus epidermidis; assay: Induction of resistance development in Staphylococcus epidermidis SE1457 assessed as fold increase in MIC at 1/2 MIC incubated for 16 hrs after 20 serial passages; assay type: functional
Staphylococcus aureus [32] = assay: Downregulation of arcC2 gene expression level in methicillin sensitive Staphylococcus aureus SA113 at 1/2 MIC by RT-qPCR analysis; assay type: functional
Staphylococcus aureus [33] = assay: Antibacterial activity against methicillin sensitive Staphylococcus aureus SA113 assessed as increase in membrane permeability at 1 to 4 times MIC incubated for 30 mins by PI staining based fluorescence assay; assay type: functional, organism-based
Staphylococcus aureus [34] = assay: Downregulation of arcC1 gene expression level in methicillin sensitive Staphylococcus aureus SA113 at 1/2 MIC by RT-qPCR analysis; assay type: functional
Staphylococcus aureus [35] = assay: Antibacterial activity against methicillin resistant Staphylococcus aureus USA300 infected in BALB/c mouse wound model assessed as log reduction in wound bacterial load at 20 mg/kg, ip administered every 12 hrs for 3 times and measured after 48 hrs in presence of DAP; assay type: functional
Acinetobacter baumannii = assay: Antibacterial activity against Acinetobacter baumannii; assay type: functional, organism-based
Staphylococcus aureus [36] = assay: Bactericidal activity against Staphylococcus aureus SA113; assay type: functional
Staphylococcus aureus [37] = assay: Induction of matured biofilm eradication in methicillin resistant Staphylococcus aureus YUSA145 assessed as reduction in bacterial survival in biofilm at 8 times MIC incubated for 48 hrs by SYTO 9 staining based confocal fluorescence microscopic analysis; assay type: functional
Staphylococcus aureus [38] = assay: Downregulation of arcC2 expression level in methicillin sensitive Staphylococcus aureus SA113 at 1/2 MIC incubated for 2 hrs by MS/MS analysis; assay type: functional
[39] = Binding affinity to biotin-labeled cardiolipin (unknown origin) by biolayer interferometry

SMILES: O=C(C1=C(O)C(=O)N(c2nnc(SCc3ccccc3Cl)s2)C1c1ccccc1O)c1cc2ccccc2o1 (centres undefined)
- MIC50 (Enterococcus faecalis [1]): ≥ 50 µM
- MIC90 (Enterococcus faecalis [1]): ≥ 50 µM
- Activity [2]: Non-Toxic
- Activity (Staphylococcus aureus [3]): Active
- MIC (Staphylococcus aureus [4]): 12.5 µM (≈ 7.2 µg/mL)
- Activity [5]: inactive
- Activity (Pseudomonas aeruginosa): Active
- Activity (Staphylococcus aureus [6]): inactive
- Activity (Staphylococcus aureus [7]): Active
- log(activity) (Staphylococcus aureus [8]): 2.7
- Activity (Staphylococcus aureus [9]): Active
- Activity [10]: Non-Toxic
- Activity (Staphylococcus aureus [11]): Active
- Activity (Staphylococcus aureus [12]): Active
- fractional inhibitory concentration index (FICI) (Staphylococcus aureus [13]): <=0.5
- log(activity) (Staphylococcus aureus [14]): 3.5
- log(activity) (Staphylococcus aureus [15]): 1
- log(activity) [16]: 1
- MIC (Staphylococcus aureus [17]): 12.5 µM (≈ 7.2 µg/mL)
- Activity (Escherichia coli): Active
- MBC (Enterococcus faecalis [18]): 100 µM (≈ 57.6 µg/mL)
- growth inhibition (GI) (Staphylococcus aureus [19]): Active
- log(activity) (Staphylococcus aureus [20]): 1
- log(activity) (Staphylococcus aureus [21]): 2
- fractional inhibitory concentration index (FICI) [22]: <=0.5
- Activity [23]: inactive
- Activity [24]: <50%
- MIC50 (Staphylococcus aureus [25]): ≥ 50 µM
- MIC90 (Staphylococcus aureus [25]): ≥ 50 µM
- fold change (FC) (Staphylococcus aureus [26]): 2
- log(activity) [27]: 1
- Activity [28]: Non-Toxic
- MBC [29]: 25 µM (≈ 14.4 µg/mL)
- fold change (FC) (Staphylococcus aureus [30]): 16
- Activity [31]: inactive
- Activity (Staphylococcus aureus [32]): Active
- Activity (Staphylococcus aureus [33]): Active
- Activity (Staphylococcus aureus [34]): Active
- log(activity) (Staphylococcus aureus [35]): 3.5
- Activity (Acinetobacter baumannii): Active
- MBC (Staphylococcus aureus [36]): 25 µM (≈ 14.4 µg/mL)
- Activity (Staphylococcus aureus [37]): <50%
- Activity (Staphylococcus aureus [38]): Active
- Kd [39]: 44.1 µM
